In paper PMC10714400, “Antimicrobial Peptide–Peptoid Hybrids with and without Membrane Disruption” (ACS Infectious Diseases, 2023):
Values after ≈ are worked out from the molar mass of the structure shown. Where a SMILES comes first, the peptide text is derived from it. [ ]: non-standard residue; d: D form. Nleu = CC(C)CNCC(=O)O; Nlys = NCCCCNCC(=O)O

Assays:
[1] = Lipid vesicle leakage assay; details: 10 mM TRIS, 107 mM NaCl, pH 7.4
Method: (c) Vesicle leakage assay for a selection of compounds.
EYPG - EB11 1 EYPC - EB11
Figure S2: Vesicle leakage experiments using 5(6)-carboxyfluorescein induced by peptides. EYPG and EYPC
compound was added after 45 sec. After 240 seconds, 30 µL Triton X-100 1.2% was added for full release of […]

S. aureus Newman = details: Table S3; […] MH at pH 8.5
Method: (§1) Antimicrobial activity was assayed for all the peptide–peptoids against P. aeruginosa PAO1, K. pneumoniae NCTC418, E. coli W3110, A. baumannii ATCC 19606, methicillin-resistant S. aureus COL (MRSA), and for selected peptides on P. aeruginosa PA14 and the polymyxin-B-resistant derivatives PA14 4.13, PA14 4.18, PA14 2P4, as well as the clinical isolates ZEM-1A and ZEM9A, K. pneumoniae OXA-48, S. aureus Newman, Enterobacter cloacae, Stenotrophomonas maltophilia, Burkholderia cenocepacia, and Staphylococus epidermidis. To determine the Minimal Inhibitory Concentration (MIC), the Broth Microdilution method was used.[72] A colony of bacteria was picked and grown in LB medium overnight at 37 °C.
(§2) To each well was finally added 4 μL of the diluted bacterial suspension (see above), corresponding to approximately 5 × 10^5 CFU. For each test, two columns of the plate were kept for sterility control (medium only), growth control (medium with bacterial inoculum, no compound). The positive control, Polymyxin B (starting with a concentration of 16 μg/mL) in MH medium with bacterial inocula, was introduced in the two lines of the plate. […] Next, 15 μL of 3-(4,5-dimethylthiazol-2-yl)-2,5-diphenyltetrazolium bromide (MTT)[73] (1 mg/mL in sterilized MilliQ deionized water) were added to each well, and the plates were incubated for 20–30 min at room temperature. The minimal inhibitory concentration (MIC) was defined as the lowest concentration of the compound that inhibits the visible growth of the tested bacteria (yellow) with the unaided eye.

P. aeruginosa PA14 = details: Table S3; […] MH at pH 8.5, 16-20 hours at 37 °C
Method: as §1, §2

PA14 4.13 (phoQ) = details: CSV; […] MH at pH 8.5
Method: as §1
(§3) To each well was finally added 4 μL of the diluted bacterial suspension (see above), corresponding to approximately 5 × 10^5 CFU. For each test, two columns of the plate were kept for sterility control (medium only), growth control (medium with bacterial inoculum, no compound). The positive control, Polymyxin B (starting with a concentration of 16 μg/mL) in MH medium with bacterial inocula, was introduced in the two lines of the plate. The plates were incubated at 37 °C for ca. 18 h under static conditions. Next, 15 μL of 3-(4,5-dimethylthiazol-2-yl)-2,5-diphenyltetrazolium bromide (MTT)[73] (1 mg/mL in sterilized MilliQ deionized water) were added to each well, and the plates were incubated for 20–30 min at room temperature. The minimal inhibitory concentration (MIC) was defined as the lowest concentration of the compound that inhibits the visible growth of the tested bacteria (yellow) with the unaided eye.

P. aeruginosa PAO1 = test system: P. aeruginosa PAO1
Method: as §1, §3

S. aureus COL (MRSA) = test system: S. aureus COL (MRSA)
Method: as §1, §3

K. pneumoniae NCTC418 = test system: K. pneumoniae NCTC418
Method: as §1, §3

PA14 2P4 (pmrB) = details: CSV; […] MH at pH 8.5
Method: as §1, §3

PA14 4.18 (pmrB) = details: CSV; […] MH at pH 8.5
Method: as §1, §3

A. baumannii ATCC19606 = test system: A. baumannii ATCC19606
Method: as §1, §3

E. coli W3110 = test system: E. coli W3110
Method: as §1, §3

[2] = Circular dichroism, α-helical content; assay type: physicochemical; details: 0.1 mg/mL; for CD %α with 5 mM DPC: 10 mM phosphate buffer pH 7.4, 5 mM DPC; for CD %α with 20% TFE: 10 mM phosphate buffer pH 7.4, 20% TFE
[3] = test system: human red blood cells (hRBC); test: Minimum hemolytic concentration (MHC); assay type: cell-based
From the text: We also measured minimal hemolysis concentrations (MHC) on human red blood cells by serial 2-fold dilution as an indication of toxicity against eukaryotic cells (Table 1).

## CC(C)C[C@H](NC(=O)CN(CC(C)C)C(=O)[C@H](CCCCN)NC(=O)CNCCCCN)C(=O)N(CCCCN)CC(=O)N[C@@H](CC(C)C)C(=O)N(CC(=O)N[C@@H](CCCCN)C(=O)N(CC(=O)N[C@@H](CC(C)C)C(=O)N(CC(N)=O)CC(C)C)CC(C)C)CC(C)C [EB10, kKlLkLlKlLl] (H-[Nlys]K[Nleu]L[Nlys]L[Nleu]K[Nleu]L[Nleu]-NH2)
[1]; egg yolk phosphatidyl choline vesicles
  Vesicle leakage activity on EYPC vesicles: no activity
[1]; fluorescein-loaded anionic EYPG vesicles
  Vesicle leakage activity on EYPG vesicles: weak or no vesicle leakage activity
S. aureus Newman
  MIC S. aureus Newman: 8 µg/mL (≈ 6.05 µM)
P. aeruginosa PA14
  MIC P. aeruginosa PA14: 4 µg/mL (≈ 3.03 µM)
PA14 4.13 (phoQ)
  MIC P. aeruginosa PA14 4.13, […] MH at pH 8.5: 4 ug/mL
P. aeruginosa PAO1; PAO1, 4 h, pH 7.4
  MIC P. aeruginosa PAO1, full MH at pH 7.4: >32 ug/mL
P. aeruginosa PAO1; PAO1, 4 h, pH 8.5
  MIC P. aeruginosa PAO1, full MH at pH 8.5: >32 ug/mL
P. aeruginosa PAO1; Table S2, […] MH, pH 7.4
  MIC P. aeruginosa PAO1 […] 7.4: 4 µg/mL (≈ 3.03 µM)
P. aeruginosa PAO1; Table S2, […] MH, pH 8.5
  MIC P. aeruginosa PAO1 […] 8.5: 4 µg/mL (≈ 3.03 µM)
P. aeruginosa PAO1; Table S2, full MH, pH 7.4
  MIC P. aeruginosa PAO1 Full MH 7.4: > 32 µg/mL
P. aeruginosa PAO1; Table S2, full MH, pH 8.5
  MIC P. aeruginosa PAO1 Full MH 8.5: > 32 µg/mL
S. aureus COL (MRSA); COL, 4 h, pH 7.4
  MIC S. aureus COL (MRSA), full MH at pH 7.4: >32 ug/mL
S. aureus COL (MRSA); Table S2, […] MH, pH 7.4
  MIC S. aureus COL (MRSA) […] 7.4: 32 µg/mL (≈ 24.2 µM)
S. aureus COL (MRSA); Table S2, […] MH, pH 8.5
  MIC S. aureus COL (MRSA) […] 8.5: 8 µg/mL (≈ 6.05 µM)
S. aureus COL (MRSA); Table S2, full MH, pH 7.4
  MIC S. aureus COL (MRSA) Full MH 7.4: > 32 µg/mL
S. aureus COL (MRSA); Table S2, full MH, pH 8.5
  MIC S. aureus COL (MRSA) Full MH 8.5: 32 µg/mL (≈ 24.2 µM)
K. pneumoniae NCTC418; NCTC418, 4 h, pH 7.4
  MIC K. pneumoniae NCTC418, full MH at pH 7.4: >32 ug/mL
K. pneumoniae NCTC418; NCTC418, 4 h, pH 8.5
  MIC K. pneumoniae NCTC418, full MH at pH 8.5: >32 ug/mL
K. pneumoniae NCTC418; Table S2, […] MH, pH 7.4
  MIC K. pneumoniae NCTC418 […] 7.4: > 32 µg/mL
K. pneumoniae NCTC418; Table S2, […] MH, pH 8.5
  MIC K. pneumoniae NCTC418 […] 8.5: 32 µg/mL (≈ 24.2 µM)
K. pneumoniae NCTC418; Table S2, full MH, pH 7.4
  MIC K. pneumoniae NCTC418 Full MH 7.4: > 32 µg/mL
K. pneumoniae NCTC418; Table S2, full MH, pH 8.5
  MIC K. pneumoniae NCTC418 Full MH 8.5: > 32 µg/mL
PA14 2P4 (pmrB)
  MIC P. aeruginosa PA14 2P4, […] MH at pH 8.5: 8 ug/mL
PA14 4.18 (pmrB)
  MIC P. aeruginosa PA14 4.18, […] MH at pH 8.5: 8 ug/mL
A. baumannii ATCC19606; ATCC19606, 4 h, pH 7.4
  MIC A. baumannii ATCC19606, full MH at pH 7.4: >32 ug/mL
A. baumannii ATCC19606; ATCC19606, 4 h, pH 8.5
  MIC A. baumannii ATCC19606, full MH at pH 8.5: >32 ug/mL
A. baumannii ATCC19606; Table S2, […] MH, pH 7.4
  MIC A. baumannii ATCC19606 […] 7.4: 16 µg/mL (≈ 12.1 µM)
A. baumannii ATCC19606; Table S2, full MH, pH 7.4
  MIC A. baumannii ATCC19606 Full MH 7.4: > 32 µg/mL
A. baumannii ATCC19606; Table S2, full MH, pH 8.5
  MIC A. baumannii ATCC19606 Full MH 8.5: > 32 µg/mL
E. coli W3110; CSV, […] MH at pH 8.5
  MIC E. coli W3110, […] MH at pH 8.5: 3 ug/mL
E. coli W3110; CSV, full MH at pH 7.4
  MIC E. coli W3110, full MH at pH 7.4: >32 ug/mL
E. coli W3110; Table S2, […] MH, pH 7.4
  MIC E. coli W3110 […] 7.4: 2 µg/mL (≈ 1.51 µM)
E. coli W3110; Table S2, […] MH, pH 8.5
  MIC E. coli W3110 […] 8.5: 2 to 4 µg/mL
E. coli W3110; Table S2, full MH, pH 7.4
  MIC E. coli W3110 Full MH 7.4: > 32 µg/mL
E. coli W3110; Table S2, full MH, pH 8.5
  MIC E. coli W3110 Full MH 8.5: 32 µg/mL (≈ 24.2 µM)
E. coli W3110; diluted MH ([…] MH, pH 8.5) per Table 1 footnote b, 16–20 h at 37 °C
  MIC E. coli W3110 […]: 2 to 4 µg/mL
[2]; DichroWeb, Contin-LL
  CD %α with 5 mM DPC: 11/11%
  CD %α with 20% TFE: 11/11%
[2]; Table S2
  CD %α with 5 mM DPC: 11%
  CD %α with 20% TFE: 11%
[3]
  Hemolysis: none of them showed any measurable hemolysis
  MHC: >2000 µg/mL
